According to patent US12161609B2, “Composition and method for treating autism spectrum disorder (ASD) symptoms of paranoia with self isolation and/or aggression” (priority 2021, dated 2024):

Tests used:
[1] = system: ASD aggression toward others or self and paranoia/social isolation; settings: for aggression and self-injury: Example 1: ASD person (when on the combination); for aggression and self-injury / paranoia/social isolation behavior: combination dosed twice daily as in TABLE 1; for loss of effectiveness (tachyphylaxis): after two years use
[2] = system: autistic patients; settings: oxcarbazepine alone vs. placebo, 2011 to 2021; cited from earlier work

| Structure (SMILES) | aggression and self-injury [1] | paranoia/social isolation behavior ([1]; Example 1: ASD person) | loss of effectiveness (tachyphylaxis) ([1]; summary over the ASD subjects) | also measured |
| --- | --- | --- | --- | --- |
| O=C1CCc2ccc(OCCCCN3CCN(c4cccc(Cl)c4Cl)CC3)cc2N1 [aripiprazole] | successful alleviation of aggression | improvement in paranoia/social isolation behaviors | tachyphylactic loss of effectiveness | dyskinesia / tardive dyskinesia and dystonias ([1]; Example 1: ASD person): developed tardive dyskinesia and dystonias; drug-induced hallucinations, aggression and paranoia ([1]; Example 1: within a half hour of taking the drug, after 1 and ½ years of use): induced hallucinations, severe aggression and paranoia; tardive dyskinesia / dystonic side effects ([1]; summary over the ASD subjects, long-term use (two years for the antipsychotics)): developed tardive dyskinesia |
| CNCCC(Oc1ccc(C(F)(F)F)cc1)c1ccccc1 (stereo not drawn) [fluoxetine] | self-injury slightly decreased | remained paranoid |  | ability to attend school ([1]; Example 1: ASD person): unable to attend schooling |
| NC(=O)N1c2ccccc2CC(=O)c2ccccc21 [oxcarbazepine] |  |  |  | adverse effects in autistic subjects [2]: so many adverse effects in autistic subjects that they drop out of the study |
| Cc1nc2n(c(=O)c1CCN1CCC(c3noc4cc(F)ccc34)CC1)CCCC2 [risperidone] |  |  | tachyphylactic loss of effectiveness | self-injury behavior, aggression toward others and social isolation symptoms ([1]; Example 3: adult ASD, combination dosed early morning and after 5:00 pm): could no longer be successfully treated |
